According to patent US8314140B2, “4-hydroxythiobenzamide derivatives of drugs” (Antibe Therapeutics Inc., priority 2006, dated 2012):
“Also recorded” adds a separate entry of the source.

What was measured:
gastric damage [1] = experiment: Gastric damage score 3 h after oral dosing; type: in vivo, rat; conditions: oral 60 μmol/kg, 3 hours; FIG. 10
Excerpt: There were 5 rats in each group.
Each group consisted of 5 rats.

COX-1 [2] = target: T1, COX-1 (Rattus norvegicus, UniProt Q63921); experiment: Whole blood thromboxane B2 synthesis in treated rats; type: in vivo; conditions: 60 μmol/kg oral; versus vehicle; FIG. 11
T1 construct: whole blood thromboxane synthesis, which occurs via COX-1; from tissue; host or cells: rat whole blood, ex vivo after oral dosing
T1 sequence (Q63921 27-602): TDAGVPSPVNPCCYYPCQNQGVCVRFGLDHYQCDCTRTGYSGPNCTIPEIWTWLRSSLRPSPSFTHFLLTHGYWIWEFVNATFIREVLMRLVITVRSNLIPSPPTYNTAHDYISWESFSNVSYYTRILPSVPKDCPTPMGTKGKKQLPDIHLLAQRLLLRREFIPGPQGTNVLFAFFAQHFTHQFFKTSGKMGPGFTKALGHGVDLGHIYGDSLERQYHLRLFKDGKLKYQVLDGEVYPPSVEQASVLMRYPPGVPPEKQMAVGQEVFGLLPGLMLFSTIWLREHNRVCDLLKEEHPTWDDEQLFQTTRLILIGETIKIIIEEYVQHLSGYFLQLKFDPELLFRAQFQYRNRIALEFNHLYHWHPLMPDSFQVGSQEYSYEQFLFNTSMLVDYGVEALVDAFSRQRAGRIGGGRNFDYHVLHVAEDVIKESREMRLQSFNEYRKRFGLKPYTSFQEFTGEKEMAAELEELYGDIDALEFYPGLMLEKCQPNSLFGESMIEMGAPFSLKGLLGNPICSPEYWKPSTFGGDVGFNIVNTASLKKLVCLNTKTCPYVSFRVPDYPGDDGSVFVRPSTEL
Description: Inhibition of COX-1 was also measured using the same rats. […] The samples were then centrifuged for 3 min at 9,000 g and the supernatant was frozen at −80° C. for subsequent measurement of thromboxane B2 concentrations using a specific ELISA.
Inhibition of COX-1 was also measured using the same rats, using the same method as described for FIG. 11.

[3] = test system: leukocyte adherence to the vascular endothelium; experiment: Leukocyte adherence after NSAID or derivative, intravital microscopy (Example 21); type: in vivo, rat; conditions: for number of adherent leukocytes compared to the parent drug alone: comment on Table 2
Excerpt: (§1) Briefly, post-capillary mesenteric venules in anestheitized rats are examined under a light microscope.

gastric ulcers = experiment: Healing of acetic acid-induced gastric ulcers; type: in vivo, rat; conditions: oral twice-daily for 4 days; 30 μmol/kg (naproxen, Compound XX 60 μmol/kg); FIG. 17
Description: Gastric ulcers were induced via serosal application of acetic acid, as described by Elliott et al., A nitric oxide-releasing nonsteroidal anti-inflammatory drug accelerates gastric ulcer healing in rats. […] After 4 days of such treatment, the rats were euthanized and the stomach was excised and photographed. The area (in mm^2) of the ulcer was determined planimetrically by an individual unaware of the treatments given to the rats.

gastric damage [4] = experiment: Incidence of gastric damage at end of the leukocyte adherence experiment; conditions: for Percent Incidence of Gastric Damage: intragastric 30 μmol/kg (naproxen and Compound XX 60 μmol/kg), end of experiment
Excerpt: as §1

visceral pain perception = experiment: Rat model of visceral pain perception (colorectal distension, AWR score); type: in vivo
Description: A rat model of visceral pain perception, a pre-clinical model of irritable bowel syndrome, was used in the following example. Rats (male, Wistar, 200-250 g, obtained from Charles River, Monza, Italy), were housed in plastic cages and maintained under controlled conditions with 12-hours light/dark cycle with lights on at 7.00 AM. Tap water and standard laboratory chow were freely available. Before experiments, rats were individually trained by spending 2-3 hours per day in a plexiglass cage for 2-3 days. It allowed them to adjust to a movement-restriction environment. Food was withheld for 12 hours before colorectal distension (CRD) recording were performed. Experiments were performed in awake rats and were conducted in a blind manner in that the observer was not aware of the identity of drug administered to each animal.
In the testing day, rats were sedated with ether inhalation and a 2 cm long latex balloon was inserted intrarectally 2 cm from the anal verge and fixed at the base of the tail. The balloon was connected via a double-barreled cannula to a pressure transducer to continuously monitoring the rectal pressure by a computer (PowerLab PC, A.D. Instruments, Milford, Mass., USA) and to a syringe for inflation/deflation of the balloon. The rats were then housed in a small cage (20×8×8 cm) on an elevated Plexiglas™ platform and allowed to wake up and adapt for 1 hour. After recovery from sedation, animals underwent the CRD procedure and behavioral responses were tested. The night before the experiments, the balloons were inflated and left overnight so the latex stretched and the balloons became compliant.
CRD of 20 seconds, performed every 5 minutes, was applied in increment of 0.4 ml starting from 0.4 ml up to 1.6 ml water. To achieve an accurate measurement of the colonic parameters and perception, the distensions were repeated twice for each intensity and data for each animal were averaged for analysis. Each animal underwent a double set of CRD. Twenty minutes after the first sequence of CRD (0.4 mL-1.6 ml water), drugs were administered intraperitoneally (i.p.) and a second set of CRD was performed. Behavioral responses during the first and the second set of CRD were assessed and compared.
Behavioral response to CRD was assessed by measuring the abdominal withdrawal reflex (AWR) using a semiquantitative score (1).
A rat model of visceral pain perception as described above was used to compare pain perception scores for 5-amino-2-(4-thiocarbamoyl-phenoxycarbonyloxy)-benzoic acid (Compound XXVII) with or without glibenclamide, an inhibitor of ATP-sensitive K^+ (KATP) channels.
Experiments were carried out as described in Example 13, except that groups of 5 rats each were treated with vehicle, trimebutine maleate (10 mg/kg), or with equimolar doses of trimebutine thiocarbamoylbenzoate (Compound III) or thiocarbamolybenzoate alone.

[5] = H2S generation in buffer and liver homogenate (Example 15); type: in vitro ADME, rat; conditions: 1 mM compound, FIG. 6
Description: (Compound XXVII) was tested for H2S generation under three different conditions. Concentrations of H2S that were generated within 1 hour from 1 mM concentrations of L-cysteine, 4-HBT (4-hydroxythiobenzamide) and 5-amino-2-(4-thiocarbamoyl-phenoxycarbonyloxy)-benzoic acid were measured. H2S release was tested under three conditions: (i) when the compound was in buffer, (ii) when the compound was in a liver homogenate, and (iii) when the compound was in the liver homogenate together with an inhibitor of cystathionine γ-lyase (PAG=DL-propargylglycine; 2 mM). Results are shown in FIG. 6. *p<0.05 compared to the release from the vehicle group. ^ψp>0.05 versus the corresponding ‘homogenate’ group. The enzymatic capacity for H2S production was determined using the same reactor as described previously (Khan et al. (1980) Microchem J 25: 388-395, incorporated herein by reference). Two ml of an assay reaction mixture was introduced in the reactor. The mixture contained 1 mM L-cysteine (or compound), 2 mM pyridoxal 5′-phosphate, 100 mM potassium phosphate buffer (pH=7.4). A constant stream of nitrogen was passed through the mixture via gas-inlet capillary. Reactions were initiated by transferring the tubes from ice bath to a 37° C. water bath. The stream of nitrogen carried the sulfide acid in the second reactor containing 4 ml of sulfide anti-oxidant buffer (SAOB) solution, consisting of 2M KOH, 1M salicylic acid and 0.22M ascorbic acid at pH 12.8[5]. After incubating at 37° C. for 90 minutes, 1 ml of 10% trichloroacetic acid solution was added to mixture to stop the reaction. The remainder H2S in the mixture was carried out via nitrogen stream by other 60 minutes of incubation at 37° C. The concentration of sulfide in SAOB solution was measured with a sulfide sensitive electrode (Model 9616 S^2−/Ag^+ electrode, Orion Research, Beverly, Mass., USA). For studies in which the test compounds were incubated in liver homogenate, 100-150 mg of isolated rat livers were homogenized in 1 ml of ice-cold T-PER protein extractor. The homogenates were added to the reaction mixture at a concentration of 10% (wt/vol). DL-propargylglycine 2 mM was incubated with liver homogenates for 5 min at 37° C. prior the enzyme reaction. Khan, S. U. Morris, G. F. and Hidiroglou, M. (1980) Rapid estimation of sulfide in rumen and blood with a sulfide-specific ion electrode. Microchem J. 25:388-395, incorporated herein by reference.

[6] = test system: carrageenan-induced paw edema; experiment: Carrageenan hindpaw edema model; type: in vivo, rat; conditions: oral 30 min prior to carrageenan; diclofenac 1, 3 or 10 mg/kg; Compound XVII equimolar to diclofenac 3 mg/kg; FIG. 14
Description: Male, Wistar rats weighing 175-200 g were given the test compounds orally 30 min prior to subplantar injection of 100 ul of 1% lambda carrageenan.

COX-1 [7] = target: COX-1 (Homo sapiens, UniProt P23219); conditions: FIG. 16
Description: Aliquots (0.5 mL) of blood from healthy human volunteers were added to glass tubes containing 10 uL of methanol alone, or one of the test drugs prepared such that the final concentration would be 0.1, 0.3, 1 or 3 μM. The tubes were placed in water bath (37° C.) with gentle shaking for 45 min, after which they were centrifuged (1,000×g) for 10 minutes. The concentration of thromboxane B2 in each sample was then determined using a specific ELISA, as in the studies shown in FIG. 11.

COX-1 (Homo sapiens, UniProt P23219), sequence (P23219 24-599): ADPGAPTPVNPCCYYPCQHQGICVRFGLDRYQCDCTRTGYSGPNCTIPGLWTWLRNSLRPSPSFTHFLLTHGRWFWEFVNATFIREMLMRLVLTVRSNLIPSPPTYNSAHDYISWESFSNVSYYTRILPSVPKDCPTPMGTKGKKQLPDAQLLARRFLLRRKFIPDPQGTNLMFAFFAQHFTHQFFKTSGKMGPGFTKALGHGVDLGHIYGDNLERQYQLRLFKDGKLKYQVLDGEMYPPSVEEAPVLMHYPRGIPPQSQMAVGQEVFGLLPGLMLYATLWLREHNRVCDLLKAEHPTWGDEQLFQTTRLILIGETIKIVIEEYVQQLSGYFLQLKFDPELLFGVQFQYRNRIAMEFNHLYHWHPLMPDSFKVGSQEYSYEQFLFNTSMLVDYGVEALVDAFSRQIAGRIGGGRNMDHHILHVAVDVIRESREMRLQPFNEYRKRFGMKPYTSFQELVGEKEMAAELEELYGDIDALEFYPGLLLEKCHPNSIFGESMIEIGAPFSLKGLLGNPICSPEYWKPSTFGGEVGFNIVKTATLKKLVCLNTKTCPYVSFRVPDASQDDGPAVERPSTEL

**Q.** With COc1ccc2cc(C(C)C(=O)Oc3ccc(C(N)=S)cc3)ccc2c1 (centres unmarked) [Compound XX, 2-(6-Methoxy-naphthalen-2-yl)-propionic acid 4-thiocarbamyl-phenyl ester] as the compound, how does the gastric damage score (gastric damage [1]) read?
**A.** significantly less damage than naproxen itself; also recorded: not detectable

**Q.** What about the “thromboxane B2 synthesis in blood (COX-1 activity)” value (COX-1 [2]) of the same compound?
**A.** significantly (*p<0.05) inhibited COX-1 activity

**Q.** And the “number of adherent leukocytes compared to the parent drug alone” value (shortened to “number … compared to the parent drug alone”) [3]?
**A.** significantly reduced the number of adherent leukocytes

**Q.** What about the “gastric ulcer healing (ulcer surface area)” value (gastric ulcers) of the same compound?
**A.** significantly greater healing

**Q.** What about the “percent incidence of gastric damage compared to the parent drug alone” value (from here on “percent incidence … to the parent drug alone”) (gastric damage [4]; rat, in vivo) of the same compound?
**A.** significantly reduced the percent incidence of gastric damage

**Q.** With CC(=O)Oc1ccccc1C(=O)Oc1ccc(C(N)=S)cc1 [Compound XVI, 2-Acetoxy-benzoic acid 4-thiocarbamoyl-pheny ester] as the compound, how does the melting point read?
**A.** 154 to 156 °C

**Q.** And the “number … compared to the parent drug alone” value [3]?
**A.** significantly reduced the number of adherent leukocytes

**Q.** What about the “percent incidence … to the parent drug alone” value (gastric damage [4]; comment on Table 2) of the same compound?
**A.** significantly reduced the percent incidence of gastric damage

**Q.** And the “Percent Incidence of Gastric Damage” value (gastric damage [4])?
**A.** 0%

**Q.** With CCC(COC(=O)c1cc(OC)c(OC)c(OC)c1)(c1ccccc1)N(C)C.NC(=S)c1ccc(C(=O)O)cc1 (centres unmarked) [trimebutine thiocarbamoylbenzoate, 3,4,5-trimethoxybenzoic acid 2-(dimethylamino)-2-phenylbutyl ester 4-thiocarbamoyl benzoate] as the compound, how does the “perception score (AWR Score)” value (visceral pain perception; doses equimolar to trimebutine maleate 10 mg/kg, FIG. 7) read?
**A.** more effective than either trimebutine maleate or thiocarbamoylbenzoate in reducing visceral pain

**Q.** What does the source list for N[C@@H](CS)C(=O)O [L-cysteine, reference compound]?
**A.** H2S generation in buffer ([5]; buffer pH 7.4, 37° C.): did not release significant H2S; H2S generation in liver homogenate with PAG ([5]; liver homogenate plus DL-propargylglycine 2 mM): markedly inhibited by PAG

**Q.** For COc1ccc(Cl)cc1C(=O)NCCc1ccc(S(=O)(=O)NC(=O)NC2CCCCC2)cc1 [glibenclamide, reference compound], which “pain perception score after glibenclamide pretreatment” value (visceral pain perception; 0.8 mL colorectal distention, glibenclamide 10 mg/kg i.p. 30 min before, FIG. 3) is on record?
**A.** did not affect the pain perception

**Q.** With O=C(O)Cc1ccccc1Nc1c(Cl)cccc1Cl [diclofenac, reference compound] as the compound, how does the “paw edema (paw volume increase)” value [6] read?
**A.** dose-dependently reduced paw edema

**Q.** Which melting point does the source give for COc1ccc2c(c1)c(CC(=O)Oc1ccc(C(N)=S)cc1)c(C)n2C(=O)c1ccc(Cl)cc1 [Compound XIX, [1-(4-Chloro-benzoyl)-5-methoxy-2-methyl-1-H-indol-3-yl]-acetic acid 4-thiocarbamoyl-phenyl ester] here?
**A.** 224 to 226 °C

**Q.** And the “Number of Adherent Leukocytes” value ([3]; intragastric 30 μmol/kg (naproxen and Compound XX 60 μmol/kg), mean±SEM)?
**A.** 3.0 ± 0.4 per 100 μm vessel length

**Q.** And the “thromboxane synthesis by human blood (COX-1 activity)” value (COX-1 [7]; 0.1, 0.3, 1 or 3 μM, 45 min, 37° C.)?
**A.** concentration-dependent inhibition of COX-1 activity

**Q.** And the “thromboxane synthesis by human blood (COX-1 activity) versus indomethacin” value (COX-1 [7]; concentrations of 1 and 3 μM)?
**A.** significantly greater (*p<0.05) inhibition of COX-1 activity than that produced by indomethacin

**Q.** And the “Percent Incidence of Gastric Damage” value (gastric damage [4])?
**A.** 0%

**Q.** With Cc1ccc(Nc2c(F)cccc2Cl)c(CC(=O)Oc2ccc(C(N)=S)cc2)c1 [Compound XVIII, 4-thiocarbamoylphenyl 2-(2-(2-chloro-6-fluorophenylamino)-5-methylphenyl)acetate] as the compound, how does the melting point read?
**A.** 120 to 122 °C

**Q.** What about the “number … compared to the parent drug alone” value [3] of the same compound?
**A.** significantly reduced the number of adherent leukocytes

**Q.** What about the “percent incidence … to the parent drug alone” value (gastric damage [4]; comment on Table 2) of the same compound?
**A.** no incidences of gastric damage

**Q.** And the “Percent Incidence of Gastric Damage” value (gastric damage [4])?
**A.** 0%
